Laboratory results from patent US8574608B2, “Bactericidal silver surfactant delivery into coating and polymer compositions” (Eastern Michigan Universtity, priority 2007, dated 2013).
“And” between values parts separate entries of the source, which are not always exact repeats. Identical values can stand only once. Like-named read-outs stand apart in the source and are kept apart here.

Columns and labels:
Staphylococcus aureus = assay: Growth on agar plates containing sodium surfactant; type: cell-based; further: test concentration or dose not given here
Bacillus subtilis = assay: Growth on agar plates containing sodium surfactant; type: cell-based; further: test concentration or dose not given here
Streptococcus viridans = assay: Growth on agar plates containing sodium surfactant; type: cell-based
Streptococcus bovis = assay: Growth on agar plates containing sodium surfactant; type: cell-based
Enterococcus fecalis = assay: Growth on agar plates containing sodium surfactant; type: cell-based; further: test concentration or dose not given here
[1] = system: Staphylococcus epidermidis; assay: Growth on agar plates containing sodium surfactant; type: cell-based
Streptococcus pyogenes = assay: Growth on agar plates containing sodium surfactant; type: cell-based
Streptococcus agalactiae = assay: Growth on agar plates containing sodium surfactant; type: cell-based; further: test concentration or dose not given here
Micrococcus luteus = assay: Growth on agar plates containing sodium surfactant; type: cell-based
Streptococcus pneumoniae = type: cell-based
Candida tropicalis = type: cell-based
Gram-negative bacteria = type: cell-based
Gram-positive bacteria = type: cell-based
B. subtilis = type: cell-based, Bacillus subtilis
S. aureus [2] = type: cell-based, Staphylococcus aureus
E. coli [3] = assay: E. coli challenged by silver surfactants in commercial alkyd paint; type: cell-based, Escherichia coli; conditions: alkyd resin paint coating, 24 h contact time; further: key: A minus sign (−) denotes no growth; a plus sign (+) denotes confluent growth; a capital P (P) denotes particle growth
E. coli [4] = assay: E. coli challenged by silver surfactants in commercial acrylic paint; type: cell-based, Escherichia coli; conditions: 24 h contact time; for surviving bacteria (growth): commercial solvent borne acrylate paint coating; on surviving bacteria (growth): key: A minus sign (−) denotes no growth; a plus sign (+) denotes confluent growth; a capital P (P) denotes particle growth
S. aureus [5] = assay: S. aureus challenged by silver surfactants in laboratory acrylic clearcoat; type: cell-based, Staphylococcus aureus; conditions: 24 h contact time; for surviving bacteria (growth): laboratory solvent borne acrylate clearcoat; on surviving bacteria (growth): key: A minus sign (−) denotes no growth; a plus sign (+) denotes confluent growth; a capital P (P) denotes particle growth
E. coli [6] = assay: E. coli challenged by silver surfactants in laboratory acrylic paint; type: cell-based, Escherichia coli; conditions: 24 h contact time; for surviving bacteria (growth): laboratory solvent borne acrylate paint coating; on surviving bacteria (growth): key: A minus sign (−) denotes no growth; a plus sign (+) denotes confluent growth; a capital P (P) denotes particle growth
E. coli [7] = assay: E. coli challenged by silver surfactants in commercial 2K epoxy paint; type: cell-based, Escherichia coli; conditions: 24 h contact time; for surviving bacteria (growth): commercial 2K epoxy paint coating

O=C(CC(C(=O)OC1CCCCC1)S(=O)(=O)[O-])OC1CCCCC1.[Na+] (stereo not drawn) [Compound S5]
Survival: No Growth/Full Growth (Staphylococcus aureus; agar plates with sodium surfactant, strain ATCC6538, replicates 1-2 or 1-3): + | Survival: No Growth/Full Growth (Staphylococcus aureus; agar plates with sodium surfactant, strain EM24/ATCC25923, replicates 1-2 or 1-3): + | Survival: No Growth/Full Growth (Bacillus subtilis; agar plates with sodium surfactant, strain ATCC33, replicates 1-2 or 1-3): − and + | Survival: No Growth/Full Growth (Bacillus subtilis; agar plates with sodium surfactant, strain EM27, replicates 1-2 or 1-3): + | Survival: No Growth/Full Growth (Streptococcus viridans; agar plates with sodium surfactant, strain EM8, replicates 1-2 or 1-3): + | Survival: No Growth/Full Growth (Streptococcus bovis; agar plates with sodium surfactant, strain EM12, replicates 1-2 or 1-3): − | Survival: No Growth/Full Growth (Enterococcus fecalis; agar plates with sodium surfactant, strain EM19, first line, replicates 1-2 or 1-3): + | Survival: No Growth/Full Growth (Enterococcus fecalis; agar plates with sodium surfactant, strain EM19, second line, replicates 1-2 or 1-3): + | Survival: No Growth/Full Growth ([1]; agar plates with sodium surfactant, strain EM3/ATCC12228, replicates 1-2 or 1-3): + | Survival: No Growth/Full Growth (Streptococcus pyogenes; agar plates with sodium surfactant, strain EM14, replicates 1-2 or 1-3): − | Survival: No Growth/Full Growth (Streptococcus agalactiae; agar plates with sodium surfactant, strain EM13, replicates 1-2 or 1-3): − and + | Survival: No Growth/Full Growth (Micrococcus luteus; agar plates with sodium surfactant, strain EM17, replicates 1-2 or 1-3): − (2×) and +

CCCCCCCCCCCCCOC(=O)CC(C(=O)OCCCCCCCCCCCCC)S(=O)(=O)[O-].[Na+] (stereo not drawn) [Compound S6]
Survival: No Growth/Full Growth (Staphylococcus aureus): + | Survival: No Growth/Full Growth (Bacillus subtilis): − and + | Survival: No Growth/Full Growth (Streptococcus viridans): + | Survival: No Growth/Full Growth (Streptococcus bovis): − | Survival: No Growth/Full Growth (Enterococcus fecalis): + | Survival: No Growth/Full Growth [1]: + | Survival: No Growth/Full Growth (Streptococcus pyogenes): − | Survival: No Growth/Full Growth (Streptococcus agalactiae): − and + | Survival: No Growth/Full Growth (Micrococcus luteus): + and −

CCCCC(CC)COC(=O)CC(C(=O)OCC(CC)CCCC)S(=O)(=O)[O-].[Na+] (stereo not drawn) [sodium bis[2-ethylhexyl]sulfosuccinate]
Survival: No Growth/Full Growth (Staphylococcus aureus): − | Survival: No Growth/Full Growth (Bacillus subtilis): − | Survival: No Growth/Full Growth (Streptococcus viridans): − | Survival: No Growth/Full Growth (Streptococcus bovis): − | Survival: No Growth/Full Growth (Enterococcus fecalis): − | Survival: No Growth/Full Growth [1]: − | Survival: No Growth/Full Growth (Streptococcus pneumoniae): − | Survival: No Growth/Full Growth (Streptococcus pyogenes): − | Survival: No Growth/Full Growth (Streptococcus agalactiae): − | Survival: No Growth/Full Growth (Candida tropicalis): − | effect on the yeast Candida tropicalis (Candida tropicalis): killed | Survival: No Growth/Full Growth (Micrococcus luteus): − | response of Gram-negative bacteria (Gram-negative bacteria): resistant | effect on all Gram-positive bacteria tested (Gram-positive bacteria): killed | killing of B. subtilis (B. subtilis): killed all | killing of S. aureus (S. aureus [2]): killed all

silver linearalkanebenzene sulfonate [AgLABS]
surviving bacteria (growth) (E. coli [3]; 0.0012 weight % Ag in coating): + | surviving bacteria (growth) (E. coli [3]; 0.003 weight % Ag in coating): + | surviving bacteria (growth) (E. coli [3]; 0.006 weight % Ag in coating): + | surviving bacteria (growth) (E. coli [3]; 0.012 weight % Ag in coating): + | surviving bacteria (growth) (E. coli [3]; 0.03 weight % Ag in coating): − | surviving bacteria (growth) (E. coli [3]; 0.06 weight % Ag in coating): − | surviving bacteria (growth) (E. coli [3]; 0.12 weight % Ag in coating): − | silver level partially effective (E. coli [4]; commercial acrylic paint): 0.03 % Ag w/w | surviving bacteria (growth) (E. coli [4]; 0.0012 weight % Ag in coating): + | surviving bacteria (growth) (E. coli [4]; 0.003 weight % Ag in coating): + | surviving bacteria (growth) (E. coli [4]; 0.006 weight % Ag in coating): + | surviving bacteria (growth) (E. coli [4]; 0.012 weight % Ag in coating): + | surviving bacteria (growth) (E. coli [4]; 0.06 weight % Ag in coating): − | surviving bacteria (growth) (E. coli [4]; 0.12 weight % Ag in coating): − | silver level at which partial growth is observed (S. aureus [5]; laboratory acrylic clearcoat): 0.012 % Ag w/w and 0.006 % Ag w/w | surviving bacteria (growth) (S. aureus [5]; 0.0012 weight % Ag in coating): − | surviving bacteria (growth) (S. aureus [5]; 0.003 weight % Ag in coating): − | surviving bacteria (growth) (S. aureus [5]; 0.03 weight % Ag in coating): − | surviving bacteria (growth) (S. aureus [5]; 0.06 weight % Ag in coating): − | surviving bacteria (growth) (S. aureus [5]; 0.12 weight % Ag in coating): − | silver level with partial inhibition (only partial growth) (E. coli [6]; laboratory acrylic paint): 0.03% | surviving bacteria (growth) (E. coli [6]; 0.0012 weight % Ag in coating): + | surviving bacteria (growth) (E. coli [6]; 0.003 weight % Ag in coating): + | surviving bacteria (growth) (E. coli [6]; 0.006 weight % Ag in coating): + | surviving bacteria (growth) (E. coli [6]; 0.012 weight % Ag in coating): + | surviving bacteria (growth) (E. coli [6]; 0.06 weight % Ag in coating): − | surviving bacteria (growth) (E. coli [6]; 0.12 weight % Ag in coating): − | surviving bacteria (growth) (E. coli [7]; 0.0012 weight % Ag in coating): + | surviving bacteria (growth) (E. coli [7]; 0.003 weight % Ag in coating): + | surviving bacteria (growth) (E. coli [7]; 0.006 weight % Ag in coating): + | surviving bacteria (growth) (E. coli [7]; 0.012 weight % Ag in coating): + | surviving bacteria (growth) (E. coli [7]; 0.03 weight % Ag in coating): − | surviving bacteria (growth) (E. coli [7]; 0.06 weight % Ag in coating): − | surviving bacteria (growth) (E. coli [7]; 0.12 weight % Ag in coating): − | silver level giving complete inhibition of growth (E. coli [7]; commercial 2K epoxy paint): 0.03 % w/w
